Test results from ChEMBL document CHEMBL1147247, “New cytotoxic sesterterpenoids and norsesterterpenoids from two sponges of the genus Sarcotragus” (2003).
Converted amounts (≈) assume the structure as drawn.

Tests used:
Format in all cases: functional
Conditions in all cases: read-out: ED50 (the source's name)
[1] = test system: HCT-15; assay: Cytotoxicity against human HCT15 cells
[2] = test system: SK-OV-3; assay: Cytotoxicity against human SKOV3 cells
[3] = test system: A549; assay: Cytotoxicity against human A549 cells
[4] = test system: XF498; assay: Cytotoxicity against human XF498 cells
[5] = test system: SK-MEL-2; assay: Cytotoxicity against human SK-MEL-2 cells

Row | SMILES | EC50 [1] | EC50 [2] | EC50 [3] | EC50 [4] | EC50 [5]
1 | CC1=C(O)[C@@H](C/C(C)=C\CC[C@H](C)/C=C/C=C(\C)CCCC2=CC(=O)N(CC(=O)[O-])C2)OC1=O.[Na+] [ISOSARCOTRINE E] | > 30 µg/mL | > 30 µg/mL | > 30 µg/mL | > 30 µg/mL | > 30 µg/mL
2 | CC1=C(O)[C@@H](C/C(C)=C\CC[C@H](C)/C=C/C=C(\C)CCCC2=CCN(CC(=O)[O-])C2=O)OC1=O.[Na+] [SARCOTRINE E] | > 30 µg/mL | > 30 µg/mL | > 30 µg/mL | > 30 µg/mL | > 30 µg/mL
3 | COc1cccc2c1C(=O)c1c(O)c3c(c(O)c1C2=O)C[C@@](O)(C(=O)CO)C[C@@H]3O[C@H]1C[C@H](N)[C@H](O)[C@H](C)O1 [DOXORUBICIN] | 0.24 µg/mL (≈ 0.442 µM) | 0.15 µg/mL (≈ 0.276 µM) | 0.04 µg/mL (≈ 0.0736 µM) | 0.19 µg/mL (≈ 0.35 µM) | 0.06 µg/mL (≈ 0.11 µM)
4 | CC(=O)C(O)C(O)C/C(C)=C\CC[C@H](C)/C=C/C=C(\C)CCCC1=CC(=O)OC1O (stereo not given in full) [SARCOTIN O] | 4.6 µg/mL (≈ 10.9 µM) | 14.9 µg/mL (≈ 35.4 µM) | 6.8 µg/mL (≈ 16.2 µM) | 11.5 µg/mL (≈ 27.3 µM) | 3 µg/mL (≈ 7.13 µM)
5 | COC(=O)[C@H](O)C/C(C)=C\CC[C@H](C)/C=C/C=C(\C)CCCC1=CC(=O)O[C@H]1O [SARCOTIN N] | 21.7 µg/mL (≈ 53.4 µM) | > 30 µg/mL | 19.4 µg/mL (≈ 47.7 µM) | > 30 µg/mL | 10.9 µg/mL (≈ 26.8 µM)
6 | C/C(=C\CCc1ccoc1)C[C@@H]1C=C(C/C=C/c2ccoc2)C(=O)O1 | 4.2 µg/mL (≈ 12.4 µM) | 32.3 µg/mL (≈ 95.4 µM) | 7.9 µg/mL (≈ 23.3 µM) | 11.8 µg/mL (≈ 34.9 µM) | 4.5 µg/mL (≈ 13.3 µM)
7 | COC1C=C(CCC/C(C)=C/C=C/[C@@H](C)CC/C=C(/C)C[C@H]2OC(=O)C(C)=C2O)C(=O)O1 (stereo not given in full) | 33 µg/mL (≈ 74.2 µM) | > 30 µg/mL | > 30 µg/mL | > 30 µg/mL | 10.9 µg/mL (≈ 24.5 µM)
